# Data as given in patent publication US5147878A, “Aminoalkoxyphenyl derivatives, process of preparation and compositions containing the same” (Sanofi, priority 1986, dated 1992).
# Structures can show the parent of a compound that is named as a salt.
# How the values were obtained:
# [1] = test system: isoprenaline-induced acceleration in heart rate (anti-β effect); assay: Antiadrenergic properties: anti-β effect (reduction of isoprenaline-induced tachycardia); format: in vivo; set-up: key to anti-β effect: +: for a reduction < 50%; ++: for a reduction ≥ 50%; +++: for a reduction sub-total (almost complete reduction); conditions: dog; for inhibition in vivo at 10 mg/kg: 10 mg/kg i.v., known compounds
# Protocol: The object of this test is to determine the capacity of the compounds of the invention for reducing the increase in epinephrine-induced increase in blood-pressure (anti-α effect) and the isoprenaline-induced acceleration in heart rate (anti-β effect), in dogs previously anaesthatized with pentobarbital and atropinized. For each dog, the dose of epinephrine (between 3 and 10 μg/kg) which induced a reproducible increase in the blood-pressure of approximately 133×10^2 Pa and the dose of isoprenaline (1 to 2 μg/kg) which induced a reproducible increase in the heart rate of approximately 70 beats/min. were first determined. The dose of epinephrine and of isoprenaline, determined in this manner, were injected alternately every ten minutes and, after two successive reference responses had been obtained, an amount of the test compound was administered intravenously. The percentage reduction in the acceleration of the heart rate induced by the test compound compared with the reference tachycardia measured previously (approximately 70 beats) was recorded. In both cases, the results of the reduction in blood-pressure or in the heart rate have been expressed as follows: […]
# [2] = test system: epinephrine-induced increase in blood-pressure (anti-α effect); assay: Antiadrenergic properties: anti-α effect (reduction of epinephrine-induced hypertension); format: in vivo; set-up: key to anti-α effect: +: for a reduction < 50%; ++: for a reduction ≥ 50%; +++: for a reduction sub-total (almost complete reduction); conditions: dog; for inhibition in vivo at 10 mg/kg: Canis lupus familiaris, iv
# Protocol: The object of this test is to determine the capacity of the compounds of the invention for reducing the increase in epinephrine-induced increase in blood-pressure (anti-α effect) and the isoprenaline-induced acceleration in heart rate (anti-β effect), in dogs previously anaesthatized with pentobarbital and atropinized. For each dog, the dose of epinephrine (between 3 and 10 μg/kg) which induced a reproducible increase in the blood-pressure of approximately 133×10^2 Pa and the dose of isoprenaline (1 to 2 μg/kg) which induced a reproducible increase in the heart rate of approximately 70 beats/min. were first determined. The dose of epinephrine and of isoprenaline, determined in this manner, were injected alternately every ten minutes and, after two successive reference responses had been obtained, an amount of the test compound was administered intravenously. The percentage reduction in the hypertension induced by the test compound compared with the reference hypertension previously obtained (approximately 100 mm Hg) was recorded. In both cases, the results of the reduction in blood-pressure or in the heart rate have been expressed as follows: […]
# isolated rat aorta = assay: Calcium inhibitory properties: contractile response to potassium-induced depolarization on isolated rat aorta; set-up: species or system isolated organ, male Wistar rats; conditions: for activity at 1 µM / activity at 0.1 µM / activity at 0.01 µM / activity at 0.001 µM: Rattus norvegicus, 1 h, read-out: % of the maximum contractional effect; for activity at 1 µM: 10^-6 M; for activity at 0.1 µM: 10^-7 M; for % of the maximum contractional effect: 60 min
# Text: It is well established that the depolarization of a smooth muscle membrane by potassium renders the latter permeable to extracellular calcium and induces muscle contraction. Consequently, the measurement of the inhibition of the contractile response to depolarization by potassium, or the measurement of a relaxation of the tonic contraction on potassium depolarization, can represent an evaluation of the power of a compound as an inhibitor of the membrane permeability to Ca^++ ions. The technique used was as follows: The aorta was removed from male Wistar rats weighing approximately 300 g, and cut into strips approximately 40 mm long and 3 mm wide. These fragments were placed in a 25-ml isolated organ trough containing a modified Krebs-bicarbonate solution (112 mM NaCl; 5 mM KCl; 25 mM NaHCO3; 1 mM KH2 PO4; 1.2 mM MgSO4; 2.5 mM CaCl2; 11.5 mM glucose, distilled water to 1000 ml) through which a stream of 5-7% carbon dioxide in oxygen was passed, and maintained at 37° C. The preparation was connected to a force microsensor and the contractile response recorded after amplification on a recorder. A tension of 2 g was applied to the preparation. This tension was maintained for 60 minutes in the modified Krebs-bicarbonate solution, and contractions were then induced by replacing the Krebs-bicarbonate solution by a potassium-Krebs solution (17 mM NaCl; 100 mM KCl; 25 mM NaHCO3; 1 mM KH2 PO4; 1.2 mM MgSO4; 2.5 mM CaCl2; 11.5 mM glucose; distilled water to 1000 ml). When the contractile response of the preparation had become reproducible, a given amount of a compound of the invention was introduced into the bath. Sixty minutes later, a new spasm was induced by potassium depolarization. The results obtained on the aorta used in the experiment were then expressed as a percentage of the maximum contractional effect before incubation with the test substance. By way of examples, the results which follow were obtained, the compounds of formula (1) being in the form of the base, hydrochloride or oxalate.
Structure (SMILES),activity at 1 µM (isolated rat aorta) [%],activity at 0.1 µM (isolated rat aorta) [%],activity at 0.01 µM (isolated rat aorta; 10^-8 M) [%],other results
"COc1ccc(CCN(C)CC(O)COc2ccc(S(=O)(=O)c3c(C(C)C)cn4ccccc34)cc2)cc1OC (racemic) [Ex. 50, hydrochloride]",–,–,–,anti-β effect ([1]; 0.1 mg/kg i.v.): +++; anti-α effect ([2]; 0.1 mg/kg i.v.): +++
"CCCCc1oc2ccccc2c1S(=O)(=O)c1ccc(OCCN(CC)CC)cc1 [Compound A, reference compound]",25,60.3,84.3,"inhibition in vivo at 10 mg/kg ([1]; Canis lupus familiaris, iv): 0%; inhibition in vivo at 10 mg/kg ([2]; 10 mg/kg i.v., known compounds): < 50%"
"CCc1oc2ccccc2c1S(=O)(=O)c1ccc(OCCN(CC)CC)cc1 [Compound B, reference compound]",52.2,84.9,–,"inhibition in vivo at 10 mg/kg ([1]; Canis lupus familiaris, iv): < 50%; anti-α effect ([2]; 10 mg/kg i.v., known compounds): +++"
"CCCCc1cn2ccccc2c1C(=O)c1ccc(OCCCN(CCCC)CCCC)cc1 [Compound C, reference compound]",25,74.4,–,"inhibition in vivo at 10 mg/kg ([1]; Canis lupus familiaris, iv): 0%; inhibition in vivo at 10 mg/kg ([2]; 10 mg/kg i.v., known compounds): < 50%"
"CCCCN(CCCC)CCCOc1ccc(C(=O)c2c(CC)cn3ccccc23)cc1 [Compound F, reference compound]",–,–,–,"inhibition in vivo at 10 mg/kg ([1]; Canis lupus familiaris, iv): 0%"
"CCc1ccccc1S(=O)(=O)c1ccc(OCCCN(C)CCc2ccc(OC)c(OC)c2)cc1 [Ex. 116, 2-Ethyl-1-[4-{3-[N-methyl-N-(3,4-dimethoxy-β-phenethyl)amino]propyloxy}benzenesulphonyl]benzene acid oxalate]",–,6,66.1,activity at 0.001 µM (isolated rat aorta; 10^-9 M): 84.8%
"CCCCN(CCCC)CCCOc1ccc(S(=O)(=O)c2ccccc2CC)cc1 [Ex. 117, 2-Ethyl-1-{4-[3-(di-n-butylamino)propyloxy]benzenesulphonyl}benzene acid oxalate]",4.2,43.4,85.1,–
"CC(C)c1ccccc1S(=O)(=O)c1ccc(OCCCNC(C)(C)C)cc1 [Ex. 118, 2-isopropyl-1-[4-{3-(tert-butylamino)propyloxy}benzenesulphonyl]benzene acid oxalate]",2.7,52.2,92.3,–
"CCc1ccccc1S(=O)(=O)c1ccc(OCCCNC(C)(C)C)cc1 [Ex. 119, 2-ethyl-1-[4-{3-(tert-butylamino)propyloxy}benzenesulphonyl]benzene acid oxalate]",32,83.3,–,–
"CCc1sc2c(c1S(=O)(=O)c1ccc(OCCCN(C)CCc3ccc(OC)c(OC)c3)cc1)CN(Cc1ccccc1Cl)CC2 [Ex. 120, 5-(2-chloro-benzyl)-2-ethyl-3-[4-{3-[N-methyl-N-(3,4-dimethoxy-β-phenethyl)amino]propyloxy}benzenesulphonyl]-4,5,6,7-tetrahydrothieno[3,2-c]pyridine oxalate]",59.8,68.7,91.4,–
"CCCCN(CCCC)CCCOc1ccc(S(=O)(=O)c2c(CC)sc3c2CN(Cc2ccccc2Cl)CC3)cc1 [Ex. 121, 5-(2-chloro-benzyl)-2-ethyl-3-{4-[3-(di-n-butylamino)propyloxy]benzenesulphonyl}-4,5,6,7-tetrahydro-thieno[3,2-c]pyridine dioxalate]",66.2,77.5,85.7,–
"CC(C)c1cc2ccccn2c1S(=O)(=O)c1ccc(OCCCNC(C)(C)C)cc1 [Ex. 122, 2-isopropyl-3-{4-[3-tert-butylamino)propyloxy]benzenesulphonyl}indolizine hydrochloride]",5.4,28.1,76.1,activity at 0.001 µM (isolated rat aorta; 10^-9 M): 92.5%
"CCCCN(CCCC)CCCOc1ccc(S(=O)(=O)c2c(CC)cc3ccccn23)cc1 [Ex. 123, 2-ethyl-3-{4-[3-(di-n-butylamino)propyloxy]benzenesulphonyl}indolizine acid oxalate]",5.8,16.8,54.6,activity at 0.001 µM (isolated rat aorta; 10^-9 M): 75.3%
"CCCCN(CCCC)CCCOc1ccc(S(=O)(=O)c2ncsc2-c2ccccc2)cc1 [Ex. 124, 4-{4-[3-(di-n-butylamino)propyloxy]benzenesulphonyl}-5-phenyl-thiazole acid oxalate]",13.7,66.7,90.6,–
"CCCCN(CCCC)CCCOc1ccc(S(=O)(=O)c2cn[nH]c2C(C)C)cc1 [Ex. 125, 4-{4-[3-(di-n-butylamino)propyloxy]benzenesulphonyl}-5-isopropyl-pyrazole acid oxalate]",79.3,90.4,–,"% of the maximum contractional effect (isolated rat aorta; head printed ""10^-"" (exponent missing; first of three columns before 10^-6 M)): 38.6%"
"CCCCN(CCCC)CCCOc1ccc(S(=O)(=O)c2c(-c3ccccc3)noc2C(C)C)cc1 [Ex. 126, 4-{4-[3-(di-n-butylamino)propyloxy]benzenesulphonyl}-5-isopropyl-3-phenyl-isoxazole]",10,38.7,75.8,–
"CCCCN(CCCC)CCCOc1ccc(S(=O)(=O)c2ccc3ccccc3c2)cc1 [Ex. 127, 2-{4-[3-(di-n-butylamino)propyloxy]benzenesulphonyl}-naphthalene acid oxalate]",50.7,86.2,–,–
"COc1cc(CCN(C)CCCOc2ccc(S(=O)(=O)c3c(C(C)C)cn4ccccc34)cc2)cc(OC)c1OC [Ex. 134, 2-isopropyl-1-[4-{3-[N-methyl-N-(3,4,5-trimethoxy-β-phenethyl)amino]propyloxy}benzenesulphonyl]indolizine acid oxalate]",–,18.9,21.4,activity at 0.001 µM (isolated rat aorta; 10^-9 M): 65.7%
"COc1cc(CCN(C)CCCOc2ccc(S(=O)(=O)c3c(C(C)C)cn4ccccc34)cc2)cc(C)c1OC.O=C(O)C(=O)O [Ex. 135, 2-isopropyl-1-[4-{3-[N-methyl-N-(3,4-dimethoxy-5-methyl-β-phenethyl)amino]propyloxy}benzenesulphonyl]indolizine acid oxalate]",–,–,–,"% of the maximum contractional effect (isolated rat aorta; 10^-8 M, 0.01 µM): 21.1%; % of the maximum contractional effect (isolated rat aorta; 10^-9 M, 0.001 µM): 58.5%; % of the maximum contractional effect (isolated rat aorta; 10^-10 M, 0.0001 µM): 78.9%"
"COc1cc(CCNCCCOc2ccc(S(=O)(=O)c3c(C(C)C)cn4ccccc34)cc2)cc(C)c1OC.O=C(O)C(=O)O [Ex. 139, 2-isopropyl-1-[4-{3-[N-(3,4-dimethoxy-5-methyl-β-phenethyl)amino]propyloxy}benzenesulphonyl]-indolizine acid oxalate]",–,–,–,"% of the maximum contractional effect (isolated rat aorta; 10^-8 M, 0.01 µM): 49%; % of the maximum contractional effect (isolated rat aorta; 10^-9 M, 0.001 µM): 89%"
"COc1cc(CCN(C)CCCOc2ccc(S(=O)(=O)c3c(C(C)C)c4ccccc4n3C)cc2)cc(OC)c1 [Ex. 146, 1-methyl-3-isopropyl-2-[4-{3-[N-methyl-N-(3,5-dimethoxy-β-phenethyl)amino]propyloxy}benzenesulphonyl]indole acid oxalate]",–,–,–,"inhibition in vivo at 0.07 mg/kg ([1]; Canis lupus familiaris, iv, 0.07 mg/kg i.v.): ≥ 50%; anti-α effect ([2]; 0.07 mg/kg i.v.): +++"
